Results reported in patent US20240082218A1, “PHARMACEUTICAL COMBINATIONS COMPRISING A KRAS G12C INHIBITOR AND USES OF A KRAS G12C INHIBITOR FOR THE TREATMENT OF CANCERS” (priority 2020, published 2024).
Entries after “also recorded” stand apart in the source; their conditions may differ. Read-outs that look alike come from different tables or passages of the source. Marks after values point to notes of the source that are not given here.

Tests used:
KRAS G12C_H95Q (GDP) = molecular target: T1, KRAS G12C_H95Q (GDP) (Homo sapiens, UniProt P01116, G12C/H95Q); experiment: Covalent rate constants by RapidFire MS; assay type: binding; conditions: n=2
T1 construct: the cDNA encoding KRAS, NRAS, and HRAS comprised aa 1-169; made in house; host or cells: E. coli BL21(DE3)
Method: (§1) The E. coli expression constructs used in this study were based on the pET system and generated using standard molecular cloning techniques. […] Point mutations were introduced with the QuikChange Lightning Site-Directed Mutagenesis kit (Agilent). All final expression constructs were sequence verified by Sanger sequencing.
(§2) Cell pellets were resuspended in buffer A (20 mM Tris, 500 mM NaCl, 5 mM imidazole, 2 mM TCEP, 10% glycerol, pH 8.0) supplemented with Turbonuclease (Merck) and cOmplete protease inhibitor tablets (Roche). The cells were lysed by three passages through a homogenizer (Avestin) at 800-1000 bar and the lysate clarified by centrifugation at 40000 g for 40 min. The lysate was loaded onto a HisTrap HP 5 ml column (Cytiva) mounted on an ÅKTA Pure 25 chromatography system (Cytiva). Contaminating proteins were washed away with buffer A and bound protein was eluted with a linear gradient to buffer B (buffer A supplemented with 200 mM imidazole). During dialysis O/N the N-terminal His affinity purification tags on the non-tagged and avi-tagged proteins were cleaved off by TEV or HRV3C protease, respectively. The protein solution was re-loaded onto a HisTrap column and the flow through containing the target protein collected. Guanosine 5′-diphosphate sodium salt (GDP, Sigma) or GppNHp-Tetralithium salt (Jena Bioscience) was added to a 24-32× molar excess over protein. […] After 1 hour at room temperature the buffer was exchanged on a PD-10 desalting column (Cytiva) against 40 mM Tris, 200 mM (NH4)2SO4, 0.1 mM ZnCl2, pH 8.0. […] 40 U Shrimp Alkaline Phosphatase (New England Biolabs) was added to GppNHp containing samples only. The sample was then incubated for 1 hour at 5° C. Finally, MgCl2 was added to a concentration of about 30 mM.
(§3) Reactions were stopped at different time points by addition of formic acid to 1%. […] In parallel, compound solubility was assessed by nephelometry and compound concentrations resulting in measurable turbidity were excluded from curve fitting. […]

KRAS G12C_Y96C (GDP) = molecular target: T2, KRAS G12C_Y96C (GDP) (Homo sapiens, UniProt P01116, G12C/Y96C); experiment: Covalent rate constants by RapidFire MS; assay type: binding; conditions: n=2
T2 construct: the cDNA encoding KRAS, NRAS, and HRAS comprised aa 1-169; made in house; host or cells: E. coli BL21(DE3)
Method: as §1, §2, §3

KRAS G12C_Y96D (GDP) = molecular target: T3, KRAS G12C_Y96D (GDP) (Homo sapiens, UniProt P01116, G12C/Y96D); experiment: Covalent rate constants by RapidFire MS; assay type: binding; conditions: n=3
T3 construct: the cDNA encoding KRAS, NRAS, and HRAS comprised aa 1-169; made in house; host or cells: E. coli BL21(DE3)
Method: as §1, §2, §3

[1] = Oral exposure and tolerability in rat
NCI-H2030 xenograft = experiment: Anti-tumor activity in NCI-H2030 xenografts; assay type: in vivo, mice; conditions: 10, 30 and 100 mg/kg oral daily
[2] = tested on: NCI-H2122 (KRASG12C lung) xenograft; assay type: in vivo, mice
4-week toxicity study = assay type: in vivo; conditions: rat
[3] = Oral exposure and tolerability in mouse
pERK = experiment: In vitro pERK inhibition in H358 cancer cells; assay type: cell-based; conditions: Homo sapiens, NCI-H358
Method: (§4) KRASG12C inhibition can be assessed by measuring free KRASG12C levels (target occupancy) and other biomarkers in the MAPK signaling pathway, such as decreased levels of phosphorylated ERK1/2 (pERK) and downregulation of DUSP6 mRNA transcript. […] In the less sensitive NCI-H2122 xenografts, orally administered JDQ443 (100 mg/kg QD) achieved approximately 80% KRASG12C inhibition and 90% decrease in DUSP6 mRNA transcript, causing stasis which is the maximum response in this model upon MAPK pathway inhibition.

[4] = tested on: advanced solid tumors harboring the KRAS G12C mutation; conditions: patients; preliminary data, trial ongoing
Method: The study is conducted in adult patients with advanced solid tumors who harbor the KRAS G12C mutation. In expansion, advanced (metastatic or unresectable) non-small cell lung cancer patients who harbor the KRAS G12C mutation and who are in the second or third line treatment setting will be enrolled.
In particular, it may be administered at a total daily dose of 400 mg, administered once daily or twice daily. It may also be administered at a total daily dose of 200 mg, administered once daily or twice daily.
It may also be administered at a total daily dose of 600 mg, administered once or twice daily.
TNO155 is administered p.o. QD or BID in a 2 week on/1 week off schedule or continuously.
TNO155 may be administered at a total daily dose ranging from 10 to 80 mg, or from 10 to 60 mg. For example, the total daily dose of TNO155 may be selected from 10, 15, 20, 30, 40, 60 and 80 mg. For example, TNO may be dosed at a total daily dose of 10, 15, 20 or 30 mg.
The total daily dose of TNO155 may be administered continuously, QD (once a day) or BID (twice a day) on QD or BID on a 2 weeks on/l week off schedule. The total daily dose of TNO155 may be administered continuously, QD (once a day) or BID (twice a day) on QD or BID on continuously (i.e. without a drug holiday). […]

DUSP6 mRNA transcript = experiment: In vivo DUSP6 mRNA in NCI-H2122 xenografts; conditions: 100 mg/kg QD oral
Method: as §4

[5] = tested on: MIA PaCa-2 (KRASG12C pancreas) xenograft; experiment: Anti-tumor activity in MIA PaCa-2 xenografts; assay type: in vivo, mice
[6] = Oral exposure and tolerability in dog
KRASG12C [7] = molecular target: T4, KRASG12C (Homo sapiens, UniProt P01116, G12C); experiment: In vitro KRAS G12C target occupancy in H358 cancer cells; assay type: cell-based; set-up: endogenous in cells; host or cells: H358 (NCI-H358) cancer cells; conditions: read-out: in vitro IC50 for inhibition of KRAS G12C (target occupancy)
Method: as §4

Blood pharmacokinetics = conditions: in vivo
HRAS WT = HRAS WT (Homo sapiens, UniProt P01112); experiment: cRAF recruitment 6 h cellular assay; assay type: cell-based
Sequence of HRAS WT (P01112 whole entry): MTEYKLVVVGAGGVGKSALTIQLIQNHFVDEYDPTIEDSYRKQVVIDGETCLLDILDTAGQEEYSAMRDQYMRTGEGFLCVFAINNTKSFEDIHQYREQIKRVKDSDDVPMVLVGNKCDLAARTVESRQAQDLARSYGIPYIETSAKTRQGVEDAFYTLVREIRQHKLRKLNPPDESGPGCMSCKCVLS

KRASG12C [8] = molecular target: T4, KRASG12C; experiment: KRASG12C target occupancy in LU99 xenografts after 5 days treatment; assay type: in vivo; set-up: KRASG12C target occupancy was assessed after 5 days treatment of LU99 xenografts; endogenous in cells; host or cells: LU99 tumour xenografts in nude mice; conditions: single-agent 30 mg/kg vs 100 mg/kg
[9] = tested on: KRAS G12C-mutated cell lines; experiment: pERK 6 h cellular assay; assay type: cell-based; conditions: Hec50, 6 h, read-out: pERK 6 h EC50 KRAS^G12C
[10] = 10, 30 and 100 mg/kg oral daily

In the case of `C=CC(=O)N1CC2(CC(n3nc(-c4ccc5c(cnn5C)c4)c(-c4c(Cl)c(C)cc5[nH]ncc45)c3C)C2)C1` (single isomer, unassigned) [Compound A, 1-{6-[(4M)-4-(5-Chloro-6-methyl-1H-indazol-4-yl)-5-methyl-3-(1-methyl-1H-indazol-5-yl)-1H-pyrazol-1-yl]-2-azaspiro[3.3]heptan-2-yl}prop-2-en-1-one], the “Second order rate constant (Kinact/KI)” value (KRAS G12C_H95Q (GDP)) is reported as 9.5 mM⁻¹ s⁻¹, the “Second order rate constant (Kinact/KI)” value (KRAS G12C_Y96C (GDP)) is reported as 0.65 mM⁻¹ s⁻¹ and the “Second order rate constant (Kinact/KI)” value (KRAS G12C_Y96D (GDP)) is reported as 0.09 mM⁻¹ s⁻¹. The oral bioavailability [1] was “orally bioavailable”, the tolerability [1] was “well-tolerated” and the “pattern of maximal response” value (NCI-H2030 xenograft) was “moderate tumor growth inhibition”. For the same compound, the anti-tumor activity ([2]; 10 mg/kg daily oral) was “weak tumor-growth inhibition”, the anti-tumor activity ([2]; 30 mg/kg daily oral) was “moderate tumor-growth inhibition; also recorded: slightly less than tumor stasis” and the anti-tumor activity ([2]; 50 mg/kg twice daily oral) was “approximate tumor stasis”. For the same compound, the anti-tumor activity ([2]; 100 mg/kg daily oral) was “approximate tumor stasis”, the anti-tumor activity ([2]; 100 mg/kg daily oral, listed as JDQ443) was “stasis” and the “pattern of maximal response” value [2, 10] was “stasis-like”. For the same compound, the “tolerability in 4-week toxicity study” value (4-week toxicity study) was “well tolerated”, the oral bioavailability [3] was “orally bioavailable” and the tolerability [3] was “well-tolerated”. The IC50 (pERK) was 20 nM, the clinical efficacy [4] was “early signs of clinical efficacy” and the “clinical safety and tolerability” value [4] was “acceptable safety and tolerability profile”. The “decrease in DUSP6 mRNA transcript” value (DUSP6 mRNA transcript) was “approximately 90%”, the anti-tumor activity ([5]; 3 mg/kg daily oral) was “tumor stasis” and the anti-tumor activity ([5]; 5 mg/kg twice daily, compared with 10 mg/kg daily) was “comparable regression”. The anti-tumor activity ([5]; 10 mg/kg daily oral) was “tumor regression”, the anti-tumor activity ([5]; 15 mg/kg twice daily, compared with 30 mg/kg qd) was “same tumor regression” and the “tumor growth inhibition by schedule” value ([5]; 30 mg/kg daily compared to 30 mg/kg q3d or 90 mg/kg q3d) was “better tumor growth inhibition”. The anti-tumor activity ([5]; 30 mg/kg daily oral) was “tumor regression”, the anti-tumor activity ([5]; 100 mg/kg daily oral) was “tumor regression” and the “pattern of maximal response” value [5, 10] was “regression”. The oral bioavailability [6] was “orally bioavailable”, the tolerability [6] was “well-tolerated” and the IC50 (KRASG12C [7]) was 20 nM. The half-life (Blood pharmacokinetics) was ~120 min, the EC50 (HRAS WT) was > 10 µM and the “reduction of free KRAS^G12C in tumors” value (KRASG12C [8]) was “less reduction of free KRAS^G12C”. It also gave an EC50 [9] of 20 nM.
